Test results reported in publication PMC11483378, “Triazole-Based Thiamine Analogues as Inhibitors of Thiamine Pyrophosphate-Dependent Enzymes: 1,3-Dicarboxylate for Metal Binding” (ACS Omega, 2024).
Read-outs that look alike come from different tables or passages of the source.

Experiments:
[1] = PAMPA (parallel artificial membrane permeability assay); format: in vitro ADME; details: for Papp at 10 h, 500 µM: PAMPA, read-out: PAMPA log Pe (converted); for Papp at 10 h, 500 µM / Fa (fraction absorbed): compounds at 500 µM, 5% DMSO in PBS pH 7.4, 10 hours, room temperature
Experimental: PAMPA – methods and results (Table S2)
PAMPA was carried out in 96-well microtiter filter plates obtained from Millipore as described1 with some modifications. Each well of the filter plate was impregnated with 15 µL of 5% hexadecane dissolved in hexane (i.e. total amount of hexadecane: 0.75 µL) for at least 10 minutes in ventilated environment to allow for complete evaporation of hexane. Donor compartments were filled with 200 µL compound-containing donor solutions of compounds dissolved in 5% DMSO, phosphate buffered saline PBS) and connected to acceptor plate prefilled with buffer (5% DMSO in PBS, pH 7.4). The resulting sandwich was incubated at room temperature under gentle shaking and wrapped in wet paper towels to avoid evaporation. After 10 hours, the sandwich was disassembled and the solutions in the acceptor and donor were transferred to a disposable UV-transparent plate. UV absorption was measured at wavelengths between 220 and 340 nm using a microplate reader (CLARIOstar).
Compounds were tested at 500 µM. Calibration to determine concentration of compounds were performed with varying compound concentrations in buffer (5% DMSO in PBS).
The artificial membrane permeability is expressed as fraction absorbed (Fa%)2 or log Pe (log of the effective permeability)1. LogD values at pH 7.4 were calculated using MarvinSketch.
Fa% = 100 ∙CA ∙VA / CD0 ∙ VD where: CA = final drug concentration in the acceptor well (µM)
VA = volume in the acceptor well (cm3)
CD0 = Initial drug concentration in the donor well (µM)
VD = volume in the donor well (cm3) log P (cm/s) = log -ln 1-CA/Cequilibrium
S = surface area (cm2), typically 0.268 cm2
Cequilibrium = theoretical equilibrium concentration = [CD ∙VD+CA ∙VA] / [VD+VA] where: CD = final drug concentration in the donor well (µM)
CA = final drug concentration in the acceptor well (µM)
Table S2. Permeability data.
Compounds Fa (%) PAMPA log Pe (cm/s) cLogD (pH = 7.4)

Porcine PDH E1 = target: T1, Porcine PDH E1 (Sus scrofa, UniProt P29804); assay: Porcine PDH E1 inhibitory activity assay (DCPIP reduction); format: biochemical; details: for % Inhibition (5:1): [Compound] = 250 μM, [TPP] = 50 μM; for inhibition at 250 µM: [Compound] = [TPP] = 250 μM, read-out: % Inhibition (1:1); for vs TPP: affinity of the compound relative to that of TPP (= [TPP]/IC50) / IC50: [TPP] = 60 µM; for IC50: read-out: IC50 (μM ± SEM); for Ki: calculated from KM(TPP) 0.05 µM using [TPP]/IC50 = KM(TPP)/KI
T1 sequence (P29804 31-390): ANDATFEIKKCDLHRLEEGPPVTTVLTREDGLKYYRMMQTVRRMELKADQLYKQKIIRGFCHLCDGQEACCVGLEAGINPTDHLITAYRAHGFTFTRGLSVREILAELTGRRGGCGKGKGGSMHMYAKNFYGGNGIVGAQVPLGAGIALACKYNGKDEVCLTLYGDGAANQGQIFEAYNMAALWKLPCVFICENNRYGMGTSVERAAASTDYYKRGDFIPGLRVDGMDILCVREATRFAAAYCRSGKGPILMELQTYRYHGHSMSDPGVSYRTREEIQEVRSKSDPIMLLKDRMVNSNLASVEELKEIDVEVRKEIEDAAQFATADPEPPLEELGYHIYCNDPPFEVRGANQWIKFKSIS
Experimental: Porcine PDH E1 was purchased from Sigma. Porcine PDH E1 activity was determined by monitoring 2,6-dichlorophenolindophenol (DCPIP) reduction at 600 nm using a microplate reader (CLARIOstar) and conducted as described[5] with some modifications. […] The reaction buffer (50 mM KH2PO4 and 1 mM MgCl2, pH 7) contained thiamine pyrophosphate (TPP) at specified concentrations, 0.25 mM DCPIP, and 2 mg/mL porcine PDH E1. The reaction mixture was preincubated at 37 °C with the inhibitor for 30 min, and then the reaction was initiated by adding pyruvate to a final concentration of 50 mM. To determine the half-maximal inhibitory concentration (IC50), the TPP concentration was set at 60 μM with varying inhibitor concentrations. Specific activity was calculated using the molar extinction coefficient of DCPIP, 21 mM^–1 cm^–1.[28] The IC50 values were calculated from nonlinear regression curve fitting using GraphPad Prism.
Porcine PDH E1 inhibitory activity assay. Porcine PDH E1 was purchased from Sigma. Porcine PDH E1 activity was determined by monitoring 2,6-dichlorophenolindophenol (DCPIP) reduction at 600 nm using a microplate reader (CLARIOstar) and conducted as described3 with some modifications. The […]
buffer (50 mM KH2PO4 and 1 mM MgCl2, pH 7) contained thiamine pyrophosphate (TPP) at specified concentrations, 0.25 mM 2,6-dichlorophenolindophenol (DCPIP), and 2 mg/mL porcine PDH E1. The reaction mixture was preincubated at 37 °C with the inhibitor for 30 min, then reaction was initiated by adding pyruvate to a final concentration of 50 mM. To determine the half-maximal inhibitory concentration (IC50), TPP concentration was set at 60 µM with varying inhibitor concentrations. […]
values were calculated from non-linear regression curve fitting using GraphPad Prism. […]

E. coli OGDH E1 = E. coli OGDH E1 (Escherichia coli, UniProt P0AFG3); assay: E. coli OGDH E1 inhibitory activity assay (DCPIP reduction); format: biochemical
Experimental: E. coli OGDH E1 was from material donated by R. Frank. E. coli OGDH E1 activity was determined by monitoring DCPIP reduction at 600 nm using a microplate reader (CLARIOstar) and conducted as described[5] with some modifications. […] The reaction buffer (50 mM KH2PO4 and 2 mM MgCl2, pH 7) contained TPP at specified concentrations, 0.5 mM DCPIP, and 6.7 mg/mL E. coli OGDH E1. The reaction mixture was preincubated at 37 °C with the inhibitor for 60 min, and then the reaction was initiated by adding α-ketoglutarate to a final concentration of 10 mM. To determine the IC50, the TPP concentration was set at 60 μM with varying inhibitor concentrations. Specific activity was calculated using the molar extinction coefficient of DCPIP, 21 mM^–1 cm^–1.[28] The IC50 values were calculated from nonlinear regression curve fitting using GraphPad Prism.
Enzyme inhibitory activity assays – methods and results (Figures S1-4) […]
The compound […]
E. coli OGDH E1 inhibitory activity assay. E. coli OGDH E1 was from material donated by R. Frank. E. coli OGDH E1 activity was determined by monitoring DCPIP reduction at 600 nm using a microplate reader (CLARIOstar) and conducted as described3 with some modifications. The percentage inhibition of compounds against E. coli OGDH E1 was assayed at 250 μM. The reaction buffer (50 mM KH 2PO4 and 2 mM MgCl2, pH 7) contained TPP at specified concentrations, 0.5 mM DCPIP, and 6.7 mg/ml E. coli OGDH E1. The reaction mixture was preincubated at 37 °C with the inhibitor for 60 min, then reaction was initiated by adding α-ketoglutarate to a final concentration of 10 mM. To determine the IC50, TPP concentration was set at 60 µM with varying inhibitor concentrations. Specific activity was […]

[2] = [Compound] = 250 μM, [TPP] = 50 μM
[3] = [Compound] = [TPP] = 250 μM; read-out: % Inhibition (1:1)
[4] = [TPP] = 60 µM; read-out: IC50 (μM ± SEM)
[5] = calculated from KM(TPP) 3 µM using [TPP]/IC50 = KM(TPP)/KI; read-out: KI
[6] = calculated from KM(TPP) 3 µM using [TPP]/IC50 = KM(TPP)/KI
[7] = read-out: IC50 (μM ± SEM); [TPP] = 60 µM

Chain of E. coli OGDH E1 (P0AFG3 whole entry): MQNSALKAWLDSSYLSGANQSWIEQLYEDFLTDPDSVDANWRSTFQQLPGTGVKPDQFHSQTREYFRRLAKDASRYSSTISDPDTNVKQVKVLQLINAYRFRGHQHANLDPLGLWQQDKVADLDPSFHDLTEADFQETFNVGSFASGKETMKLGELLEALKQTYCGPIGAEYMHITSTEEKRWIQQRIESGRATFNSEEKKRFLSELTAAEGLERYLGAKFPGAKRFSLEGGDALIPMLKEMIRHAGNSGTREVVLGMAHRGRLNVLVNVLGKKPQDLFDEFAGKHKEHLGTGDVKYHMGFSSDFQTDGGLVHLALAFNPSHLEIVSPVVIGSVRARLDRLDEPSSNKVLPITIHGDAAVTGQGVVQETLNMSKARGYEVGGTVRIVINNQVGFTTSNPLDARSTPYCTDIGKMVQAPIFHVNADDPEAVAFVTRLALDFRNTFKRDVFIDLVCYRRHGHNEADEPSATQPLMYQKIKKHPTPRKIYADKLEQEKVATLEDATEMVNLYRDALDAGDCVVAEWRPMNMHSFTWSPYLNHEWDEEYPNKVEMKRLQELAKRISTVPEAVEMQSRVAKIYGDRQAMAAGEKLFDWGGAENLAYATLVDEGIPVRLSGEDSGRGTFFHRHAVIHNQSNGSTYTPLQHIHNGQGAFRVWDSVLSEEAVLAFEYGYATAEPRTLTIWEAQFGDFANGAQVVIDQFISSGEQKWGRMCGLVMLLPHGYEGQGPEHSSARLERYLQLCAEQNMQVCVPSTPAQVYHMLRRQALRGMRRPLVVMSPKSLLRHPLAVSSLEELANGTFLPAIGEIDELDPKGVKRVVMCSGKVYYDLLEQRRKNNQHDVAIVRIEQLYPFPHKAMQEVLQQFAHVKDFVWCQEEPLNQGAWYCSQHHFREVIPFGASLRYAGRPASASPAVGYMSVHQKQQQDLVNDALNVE

SMILES	membrane permeability in PAMPA (in words) [1]	Papp at 10 h, 500 µM [1] [×10⁻⁶ cm/s]	Fa (fraction absorbed) [1] [%]	% Inhibition (5:1) (Porcine PDH E1) [%]	inhibition at 250 µM (Porcine PDH E1) [%]	vs TPP: affinity of the compound relative to that of TPP (= [TPP]/IC50) (Porcine PDH E1)	IC50 (Porcine PDH E1) [µM]	Ki (Porcine PDH E1) [µM]	% Inhibition (5:1) (E. coli OGDH E1; [2]) [%]	inhibition at 250 µM (E. coli OGDH E1; [3]) [%]	vs TPP: affinity of the compound relative to that of TPP (= [TPP]/IC50) (E. coli OGDH E1; [TPP] = 60 µM)	IC50 (E. coli OGDH E1; [4]) [µM]	Ki (E. coli OGDH E1; [5]) [µM]	Ki (E. coli OGDH E1; [6]) [µM]	IC50 (E. coli OGDH E1; [7]) [µM]
COC(=O)C(CCc1cn(Cc2cnc(C)nc2N)nn1)C(=O)OC [13a]	membrane-permeable	6.31	39	71 ± 3	36 ± 2	0.53	114 ± 15	0.095	40 ± 3	< 20	0.15	394 ± 65	20	–	–
COC(=O)C(CCCc1cn(Cc2cnc(C)nc2N)nn1)C(=O)OC [13b]	–	6.31	42	81 ± 4	48 ± 3	0.88	68 ± 9	0.057	54 ± 3	23 ± 4	0.24	251 ± 37	13	–	–
Cc1ncc(Cn2cc(CCC(C(=O)[O-])C(=O)[O-])nn2)c(N)n1.[K+].[K+] [14a]	impermeable	0.316	2	> 90	62 ± 3	1.62	37 ± 6	0.031	76 ± 5	36 ± 4	0.57	–	–	5.3	105 ± 11
Cc1ncc(Cn2cc(CCCC(C(=O)[O-])C(=O)[O-])nn2)c(N)n1.[K+].[K+] [14b]	membrane-impermeable	0.158	1	> 90	72 ± 3	2.4	25 ± 6	0.021	83 ± 4	47 ± 3	0.90	–	–	3.4	67 ± 9
COC(=O)CCCc1cn(Cc2cnc(C)nc2N)nn1 [15a]	membrane-permeable	5.01	38	65 ± 4	25 ± 4	0.36	167 ± 35	0.14	38 ± 3	< 20	0.15	407 ± 73	20	–	–
COC(=O)CCCCc1cn(Cc2cnc(C)nc2N)nn1 [15b]	membrane-permeable	6.31	44	71 ± 4	31 ± 3	0.48	126 ± 28	0.11	42 ± 4	< 20	0.17	353 ± 29	18	–	–
Cc1ncc(Cn2cc(CCCC(=O)[O-])nn2)c(N)n1.[K+] [16a]	impermeable	0.398	3	75 ± 4	34 ± 3	0.54	111 ± 18	0.093	49 ± 3	< 20	0.19	–	–	16	316 ± 57
